≈ marks a conversion by molar mass, not a printed value.

Data set [1] can be described thus: Solubility of axitinib prodrugs in phosphate buffer saline (Example 7). It counts as physicochemical. The settings on record: phosphate buffer saline (PBS, pH-7.40). The method, then: Axitinib prodrugs of the present invention were tested for solubility in phosphate buffer saline (PBS, pH-7.40).
A short description of data set [2]: Stability in phosphate buffer saline (Example 8). Format: physicochemical. The settings on record: PBS, pH-7.40; for remaining at 24 h / remaining at 72 h / remaining at 168 h: phosphate buffer saline, pH 7.4, read-out: % remaining compared to Day 0; for remaining at 24 h: Day 1; for remaining at 72 h: Day 3; for remaining at 168 h: Day 7. The method, then: Axitinib prodrugs of the present invention were tested for stability in phosphate buffer saline (PBS, pH-7.40).

A short description of data set [3]: Particle size after micronization (Example 6). It counts as physicochemical. The settings on record: micronized. From the text:
The micronization of the axitinib-N-m (PEG)2-oxymethyl prodrug obtained in Example 6 in a dry dispersion was D90=12.4 μm; D50=3.6 μm and D10=0.6 μm and dispersed in water was D90=12.2 μm; D50=5.2 μm and D10=1.1 μm.

Data set [4] is described as follows: Solubility of axitinib and prodrug in phosphate buffer saline pH 7.4, 24 hour at 22 °C (Example 2). It counts as physicochemical. The method, then: Solubility testing was performed with the following test items and conditions: • Test items: axitinib (99.99% purity by HPLC); axitinib-N-mPEG-succinoyloxymethyl prodrug (93.6% purity by HPLC) • Test media: phosphate buffer saline pH 7.4 • Incubation condition: 24 hour at 22 °C with continuous shaking • Test concentration: 1 mg/mL • Data analysis: Solubility of test item was determined by HPLC analysis with calibration curve

For data set [5] the following is noted: cited from earlier work.
Setting [6] is: phosphate buffer saline pH 7.4, 24 hour at 22 °C, continuous shaking, test concentration 1 mg/mL, HPLC.

As to `CNC(=O)c1ccccc1Sc1ccc2c(/C=C/c3ccccn3)nn(COC(=O)CCC(=O)O)c2c1` [Axitinib-N-Succinoyloxymethyl Prodrug], the solubility in data set [1] (pH 7.4, read-out: Solubility) came out at 217 µg/mL (≈ 421 µM).

As to `CNC(=O)c1ccccc1Sc1ccc2c(/C=C/c3ccccn3)nn(COC(=O)CCOCCOCCOC)c2c1` [Axitinib-N-m(PEG)3-oxymethyl prodrug], the solubility in data set [1] (pH 7.4, read-out: Solubility) came out at 6.16 µg/mL (≈ 10.4 µM). Besides, in data set [2], the “% remaining compared to Day 0” value was 100.00%, the amount remaining at 24 h came to 53.9%, the share remaining at 72 h was found to be 24% and the share remaining at 168 h came to 12.7%.

On to `CNC(=O)c1ccccc1Sc1ccc2c(/C=C/c3ccccn3)nn(COC(=O)CCOC)c2c1` [Axitinib-N-m(PEG)1-oxymethyl prodrug], for which the solubility entry in data set [1] was “Not Soluble”. For the same compound, in data set [2], the “% remaining compared to Day 0” value amounted to 100.00%, the fraction remaining at 24 h is 38.8%, the amount remaining at 72 h amounted to 6.7% and the fraction remaining at 168 h is 5%.

In data set [3] (dispersed in water), `CNC(=O)c1ccccc1Sc1ccc2c(/C=C/c3ccccn3)nn(COC(=O)CCOCCOC)c2c1` [Axitinib-N-m(PEG)2-oxymethyl prodrug] came in with a D10 of 1.1 μm, a D50 of 5.2 μm and a D90 of 12.2 μm. Besides, in data set [3] (dry dispersion), the D10 was determined as 0.6 μm, the D50 turned out to be 3.6 μm and the D90 was found to be 12.4 μm. In addition, the solubility in data set [1] (pH 7.4, read-out: Solubility) was found to be 1.1 µg/mL (≈ 2.01 µM). Moreover, in data set [2], the “% remaining compared to Day 0” value came out at 100.00%, the amount remaining at 24 h stood at 45.9%, the fraction remaining at 72 h came to 30.5% and the fraction remaining at 168 h came to 16.9%.

For `CNC(=O)c1ccccc1Sc1ccc2c(/C=C/c3ccccn3)n[nH]c2c1` [Axitinib, axitinib, reference compound], in data set [4] (setting [6]), the solubility at 24 h was below 0.78 µg/mL. In data set [5], the literature reported solubility entry is recorded as “about 0.2 mcg/mL”. Further, in data set [2], the “% remaining compared to Day 0” value turned out to be 100.00%, the amount remaining at 24 h was found to be 96.7%, the fraction remaining at 72 h was 96.2% and the fraction remaining at 168 h worked out at 91.8%.

Turning to “axitinib-N-mPEG-succinoyloxymethyl [N-mPEG succinoyloxymethyl Prodrug]”, the solubility in data set [4] (setting [6]) and in data set [1] was 99.37 µg/mL throughout. For the same compound, the “solubility enhancement of prodrug” value in data set [4] (versus axitinib) was ~ 500 ×.

A word on the solubility: it is how much of the substance goes into solution per volume. The share remaining is what is left of the initial amount, in per cent.

These data come from patent publication US20260347336A1, “PRODRUGS, FORMULATIONS AND METHODS THEREOF” (OCULAR THERAPEUTIX, INC., priority 2022, published 2026).
